Assay results as given in patent publication US20130158007A1 (KEMPHARM, INC., priority 2010, published 2013).
Counter-ions that a name gives are not always drawn.

How the values were obtained:
[1] = target: T1, α1B-adrenergic receptor (Homo sapiens, UniProt P35368); settings: cited from earlier work
T1 sequence (P35368 1-520): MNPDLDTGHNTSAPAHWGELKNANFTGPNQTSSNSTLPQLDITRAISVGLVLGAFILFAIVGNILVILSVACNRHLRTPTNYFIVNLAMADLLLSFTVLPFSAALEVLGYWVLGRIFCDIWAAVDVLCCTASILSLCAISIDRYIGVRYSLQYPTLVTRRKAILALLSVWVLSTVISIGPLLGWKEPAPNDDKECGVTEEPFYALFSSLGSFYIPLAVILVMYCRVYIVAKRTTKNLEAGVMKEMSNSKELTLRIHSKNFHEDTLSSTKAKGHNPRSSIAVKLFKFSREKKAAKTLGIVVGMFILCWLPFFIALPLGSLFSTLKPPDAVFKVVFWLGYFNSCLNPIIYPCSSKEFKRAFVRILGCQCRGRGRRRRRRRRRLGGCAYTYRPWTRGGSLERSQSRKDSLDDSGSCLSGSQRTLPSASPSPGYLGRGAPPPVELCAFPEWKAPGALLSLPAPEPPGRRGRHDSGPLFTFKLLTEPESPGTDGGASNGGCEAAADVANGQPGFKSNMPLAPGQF

[2] = target: M3 muscarinic receptor (Homo sapiens, UniProt P20309); settings: cited from earlier work
[3] = target: histamine H1 receptor (Homo sapiens, UniProt P35367); settings: cited from earlier work
[4] = target: serotonin 5-HT1E receptor (Homo sapiens, UniProt P28566); settings: cited from earlier work
[5] = target: norepinephrine reuptake transporter (NET) (Homo sapiens, UniProt P23975); settings: cited from earlier work
[6] = target: T2, M5 muscarinic receptor (Homo sapiens, UniProt P08912); settings: cited from earlier work
T2 sequence (P08912 1-532): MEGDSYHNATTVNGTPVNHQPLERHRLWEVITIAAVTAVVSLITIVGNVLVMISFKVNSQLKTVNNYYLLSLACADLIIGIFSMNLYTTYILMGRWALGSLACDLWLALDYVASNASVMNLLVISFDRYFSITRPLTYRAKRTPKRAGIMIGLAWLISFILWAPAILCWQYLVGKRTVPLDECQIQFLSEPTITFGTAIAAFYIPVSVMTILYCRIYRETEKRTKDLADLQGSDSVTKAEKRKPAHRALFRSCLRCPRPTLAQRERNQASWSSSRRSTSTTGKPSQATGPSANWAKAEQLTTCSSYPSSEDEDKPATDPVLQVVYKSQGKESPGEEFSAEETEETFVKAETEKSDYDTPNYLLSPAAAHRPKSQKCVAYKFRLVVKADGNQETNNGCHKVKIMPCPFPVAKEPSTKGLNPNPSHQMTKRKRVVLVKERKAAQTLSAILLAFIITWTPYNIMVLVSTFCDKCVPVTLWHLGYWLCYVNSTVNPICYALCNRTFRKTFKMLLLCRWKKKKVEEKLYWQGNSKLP

[7] = target: serotonin 5-HT7 receptor (Homo sapiens, UniProt P34969); settings: cited from earlier work
[8] = target: serotonin 5-HT2B receptor (Homo sapiens, UniProt P41595); settings: cited from earlier work
[9] = target: 5-HT2A receptor (Homo sapiens, UniProt P28223); settings: cited from earlier work
[10] = target: T3, M1 muscarinic receptor (Homo sapiens, UniProt P11229); settings: cited from earlier work
T3 sequence (P11229 1-460): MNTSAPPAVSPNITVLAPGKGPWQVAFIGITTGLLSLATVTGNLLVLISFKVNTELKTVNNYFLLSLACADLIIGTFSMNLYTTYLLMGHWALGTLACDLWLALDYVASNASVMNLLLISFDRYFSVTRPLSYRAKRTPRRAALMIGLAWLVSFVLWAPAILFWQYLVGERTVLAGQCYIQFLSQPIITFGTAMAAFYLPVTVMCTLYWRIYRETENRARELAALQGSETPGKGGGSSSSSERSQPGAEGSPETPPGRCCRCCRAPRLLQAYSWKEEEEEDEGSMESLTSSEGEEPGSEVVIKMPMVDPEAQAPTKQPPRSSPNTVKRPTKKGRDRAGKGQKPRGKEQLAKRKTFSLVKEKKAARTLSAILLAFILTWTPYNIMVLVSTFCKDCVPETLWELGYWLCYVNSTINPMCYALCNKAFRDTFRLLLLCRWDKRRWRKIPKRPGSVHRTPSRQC

[11] = target: T4, serotonin 5-HT1A receptor (Homo sapiens, UniProt P08908); settings: cited from earlier work
T4 sequence (P08908 1-422): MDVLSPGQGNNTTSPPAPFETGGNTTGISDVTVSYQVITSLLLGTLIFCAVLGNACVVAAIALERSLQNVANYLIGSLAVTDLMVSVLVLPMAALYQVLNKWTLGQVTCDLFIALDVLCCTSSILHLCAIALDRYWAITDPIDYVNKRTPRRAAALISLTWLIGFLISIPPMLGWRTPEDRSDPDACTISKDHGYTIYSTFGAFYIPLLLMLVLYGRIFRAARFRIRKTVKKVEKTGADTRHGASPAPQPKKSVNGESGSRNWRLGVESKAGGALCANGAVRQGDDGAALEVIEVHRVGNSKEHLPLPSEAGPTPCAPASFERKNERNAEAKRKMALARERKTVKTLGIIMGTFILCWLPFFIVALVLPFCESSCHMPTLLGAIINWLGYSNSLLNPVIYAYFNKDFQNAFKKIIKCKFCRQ

[12] = target: T5, 5-HT1A receptor (Homo sapiens, UniProt P08908); settings: relative to quetiapine; cited from earlier work
T5 sequence (P08908 1-422): T4 sequence (P08908 1-422)

[13] = oral solution
[14] = tested on: leptin; settings: chronic oral administration for 6 weeks; cited from earlier work
[15] = target: dopaminergic D2 receptor (Homo sapiens, UniProt P14416); settings: cerebral receptors; cited from earlier work
[16] = tested on: a1-adrenergic receptors; settings: cited from earlier work
[17] = clinical trials; cited from earlier work
[18] = tested on: α2-adrenergic receptors; settings: cited from earlier work
[19] = cited from earlier work
[20] = target: dopaminergic D1 receptor (Homo sapiens, UniProt P21728); settings: cerebral receptors; cited from earlier work
[21] = patients, cited from earlier work
[22] = in vivo; cited from earlier work

Sequence of norepinephrine reuptake transporter (NET) (P23975 whole entry): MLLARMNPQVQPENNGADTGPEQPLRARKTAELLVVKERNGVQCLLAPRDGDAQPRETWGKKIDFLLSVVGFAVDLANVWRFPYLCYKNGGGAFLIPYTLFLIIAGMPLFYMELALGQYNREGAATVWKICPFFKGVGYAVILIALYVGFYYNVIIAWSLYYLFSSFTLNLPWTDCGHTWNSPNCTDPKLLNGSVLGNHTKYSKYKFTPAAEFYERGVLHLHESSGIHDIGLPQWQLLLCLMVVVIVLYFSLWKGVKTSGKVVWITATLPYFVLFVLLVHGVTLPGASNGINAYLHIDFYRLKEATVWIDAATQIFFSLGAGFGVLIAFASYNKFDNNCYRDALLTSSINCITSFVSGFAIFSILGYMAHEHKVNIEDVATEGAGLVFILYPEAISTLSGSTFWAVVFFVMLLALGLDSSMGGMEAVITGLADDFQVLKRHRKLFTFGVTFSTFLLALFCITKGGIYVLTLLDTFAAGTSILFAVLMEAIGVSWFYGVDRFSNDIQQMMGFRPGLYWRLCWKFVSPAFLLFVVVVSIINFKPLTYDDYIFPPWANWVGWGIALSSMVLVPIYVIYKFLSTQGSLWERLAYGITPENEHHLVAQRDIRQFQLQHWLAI
Sequence of M3 muscarinic receptor (P20309 whole entry): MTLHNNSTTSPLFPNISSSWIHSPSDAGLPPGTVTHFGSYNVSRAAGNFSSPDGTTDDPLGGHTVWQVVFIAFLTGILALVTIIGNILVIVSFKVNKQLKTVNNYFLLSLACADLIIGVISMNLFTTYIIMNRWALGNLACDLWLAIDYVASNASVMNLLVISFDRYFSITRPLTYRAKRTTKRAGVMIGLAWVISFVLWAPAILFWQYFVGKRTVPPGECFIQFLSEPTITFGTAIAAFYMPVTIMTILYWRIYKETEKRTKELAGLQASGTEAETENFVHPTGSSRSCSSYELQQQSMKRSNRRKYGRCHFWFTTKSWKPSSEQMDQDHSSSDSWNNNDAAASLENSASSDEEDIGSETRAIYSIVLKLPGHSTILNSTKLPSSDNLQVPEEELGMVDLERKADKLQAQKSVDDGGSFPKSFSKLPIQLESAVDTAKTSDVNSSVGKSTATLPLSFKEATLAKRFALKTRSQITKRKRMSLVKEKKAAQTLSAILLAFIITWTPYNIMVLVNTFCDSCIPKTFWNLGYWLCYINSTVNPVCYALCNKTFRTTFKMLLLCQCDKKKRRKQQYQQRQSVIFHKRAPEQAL
Sequence of dopaminergic D1 receptor (P21728 whole entry): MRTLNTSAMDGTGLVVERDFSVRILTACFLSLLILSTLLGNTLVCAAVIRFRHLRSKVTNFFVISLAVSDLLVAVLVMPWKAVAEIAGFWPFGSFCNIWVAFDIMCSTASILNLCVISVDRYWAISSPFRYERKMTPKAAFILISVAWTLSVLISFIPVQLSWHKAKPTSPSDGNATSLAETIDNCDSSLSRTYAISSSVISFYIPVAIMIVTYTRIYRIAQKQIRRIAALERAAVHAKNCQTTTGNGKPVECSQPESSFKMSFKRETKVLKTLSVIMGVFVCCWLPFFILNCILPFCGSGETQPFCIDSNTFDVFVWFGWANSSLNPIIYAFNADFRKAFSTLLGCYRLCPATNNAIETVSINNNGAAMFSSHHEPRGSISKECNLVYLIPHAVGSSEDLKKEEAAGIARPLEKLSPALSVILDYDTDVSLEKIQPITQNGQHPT
Sequence of serotonin 5-HT1E receptor (P28566 whole entry): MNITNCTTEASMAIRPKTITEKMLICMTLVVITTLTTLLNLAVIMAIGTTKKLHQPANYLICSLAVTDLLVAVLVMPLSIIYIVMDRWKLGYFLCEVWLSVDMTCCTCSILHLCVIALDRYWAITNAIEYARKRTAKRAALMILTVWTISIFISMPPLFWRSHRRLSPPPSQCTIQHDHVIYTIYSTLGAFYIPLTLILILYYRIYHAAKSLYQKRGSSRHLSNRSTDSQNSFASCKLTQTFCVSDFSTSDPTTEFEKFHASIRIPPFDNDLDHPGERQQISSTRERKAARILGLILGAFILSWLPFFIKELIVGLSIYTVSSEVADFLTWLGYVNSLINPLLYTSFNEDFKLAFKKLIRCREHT
Sequence of serotonin 5-HT7 receptor (P34969 whole entry): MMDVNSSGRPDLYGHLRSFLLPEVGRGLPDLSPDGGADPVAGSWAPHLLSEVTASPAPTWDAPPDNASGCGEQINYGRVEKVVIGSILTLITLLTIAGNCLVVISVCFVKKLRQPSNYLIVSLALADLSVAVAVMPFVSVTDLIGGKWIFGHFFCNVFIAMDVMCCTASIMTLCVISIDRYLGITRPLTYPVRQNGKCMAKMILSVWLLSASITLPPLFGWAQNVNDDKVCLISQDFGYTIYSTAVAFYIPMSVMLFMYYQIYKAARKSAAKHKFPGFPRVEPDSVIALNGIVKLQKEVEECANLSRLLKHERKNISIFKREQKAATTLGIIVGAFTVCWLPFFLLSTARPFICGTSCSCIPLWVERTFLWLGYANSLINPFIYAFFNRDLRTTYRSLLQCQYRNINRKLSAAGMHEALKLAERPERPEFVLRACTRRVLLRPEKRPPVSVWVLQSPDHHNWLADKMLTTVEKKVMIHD
Sequence of 5-HT2A receptor (P28223 whole entry): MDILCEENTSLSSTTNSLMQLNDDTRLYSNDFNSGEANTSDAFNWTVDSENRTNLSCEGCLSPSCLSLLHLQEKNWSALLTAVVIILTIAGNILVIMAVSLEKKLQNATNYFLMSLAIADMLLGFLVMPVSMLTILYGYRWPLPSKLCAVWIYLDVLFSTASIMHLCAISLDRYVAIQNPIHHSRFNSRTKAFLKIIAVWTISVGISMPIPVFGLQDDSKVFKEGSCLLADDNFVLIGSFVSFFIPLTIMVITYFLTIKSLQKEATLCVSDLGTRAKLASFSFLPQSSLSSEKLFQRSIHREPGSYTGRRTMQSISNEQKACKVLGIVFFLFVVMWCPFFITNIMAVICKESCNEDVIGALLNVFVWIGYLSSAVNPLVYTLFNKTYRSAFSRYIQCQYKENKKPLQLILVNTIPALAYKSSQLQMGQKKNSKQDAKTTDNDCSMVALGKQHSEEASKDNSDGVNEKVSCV
Sequence of dopaminergic D2 receptor (P14416 whole entry): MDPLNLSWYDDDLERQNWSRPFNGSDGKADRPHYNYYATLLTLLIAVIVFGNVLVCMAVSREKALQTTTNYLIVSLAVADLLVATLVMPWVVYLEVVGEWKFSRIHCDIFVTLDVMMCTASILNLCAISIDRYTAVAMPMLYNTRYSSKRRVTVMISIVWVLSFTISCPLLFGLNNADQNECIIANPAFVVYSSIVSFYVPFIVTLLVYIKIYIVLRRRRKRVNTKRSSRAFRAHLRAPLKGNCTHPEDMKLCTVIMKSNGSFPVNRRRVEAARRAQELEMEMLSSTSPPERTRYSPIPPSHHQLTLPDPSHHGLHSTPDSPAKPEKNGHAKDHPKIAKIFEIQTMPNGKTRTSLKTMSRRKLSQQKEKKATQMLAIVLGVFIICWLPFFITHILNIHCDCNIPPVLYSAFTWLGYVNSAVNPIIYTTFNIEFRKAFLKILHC
Sequence of serotonin 5-HT2B receptor (P41595 whole entry): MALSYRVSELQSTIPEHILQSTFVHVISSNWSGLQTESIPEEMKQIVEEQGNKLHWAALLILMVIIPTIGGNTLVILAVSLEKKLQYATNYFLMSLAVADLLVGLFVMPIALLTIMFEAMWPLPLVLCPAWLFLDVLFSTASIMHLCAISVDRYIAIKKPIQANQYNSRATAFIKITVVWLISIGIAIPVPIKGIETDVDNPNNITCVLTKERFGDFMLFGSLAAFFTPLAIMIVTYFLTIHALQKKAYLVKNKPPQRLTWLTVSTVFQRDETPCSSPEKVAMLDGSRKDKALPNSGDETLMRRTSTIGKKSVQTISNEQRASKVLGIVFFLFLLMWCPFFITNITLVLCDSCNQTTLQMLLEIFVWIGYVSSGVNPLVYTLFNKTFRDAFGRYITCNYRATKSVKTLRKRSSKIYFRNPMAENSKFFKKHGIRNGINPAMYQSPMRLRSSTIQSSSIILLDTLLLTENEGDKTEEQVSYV
Sequence of histamine H1 receptor (P35367 whole entry, species assumed): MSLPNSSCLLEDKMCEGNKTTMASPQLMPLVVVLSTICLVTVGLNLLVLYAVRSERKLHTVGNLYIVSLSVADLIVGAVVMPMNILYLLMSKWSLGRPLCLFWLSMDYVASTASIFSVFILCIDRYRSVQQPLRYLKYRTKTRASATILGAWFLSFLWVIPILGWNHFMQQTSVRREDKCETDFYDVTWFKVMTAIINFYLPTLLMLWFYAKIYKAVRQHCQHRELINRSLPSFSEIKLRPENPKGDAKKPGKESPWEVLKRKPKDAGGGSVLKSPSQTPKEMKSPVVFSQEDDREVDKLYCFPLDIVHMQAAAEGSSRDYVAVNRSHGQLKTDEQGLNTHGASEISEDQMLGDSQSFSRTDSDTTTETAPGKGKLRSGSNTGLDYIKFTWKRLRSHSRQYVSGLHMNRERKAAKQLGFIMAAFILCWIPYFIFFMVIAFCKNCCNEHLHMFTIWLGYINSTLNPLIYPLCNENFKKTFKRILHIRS

Question: With `c1ccc2c(c1)N=C(N1CCNCC1)c1ccccc1S2` [N-desalkyl-quetiapine] as the molecule, how does the “affinity” value [1] read?
Answer: moderate affinities

Question: What about the “affinity” value [2] of the same molecule?
Answer: moderate affinities

Question: What about the “affinity” value [3] of the same molecule?
Answer: high affinity

Question: And the “affinity” value [4]?
Answer: moderate affinities

Question: What about the “affinity” value [5] of the same molecule?
Answer: moderate affinities

Question: What about the “avidity for inhibiting human NET, fold higher than quetiapine” value ([5]; relative to quetiapine) of the same molecule?
Answer: about 100 fold

Question: And the “affinity” value [6]?
Answer: moderate affinities

Question: And the “affinity” value [7]?
Answer: moderate affinities

Question: And the “affinity” value [8]?
Answer: moderate affinities

Question: And the “affinity” value [9]?
Answer: moderate affinities

Question: What about the “affinity” value [10] of the same molecule?
Answer: moderate affinities

Question: And the “affinity” value [11]?
Answer: moderate affinities

Question: And the “potency at the 5-HT1A receptor, fold more potent than quetiapine” value [12]?
Answer: 10 fold

Question: With `OCCOCCN1CCN(C2=Nc3ccccc3Sc3ccccc32)CC1` [quetiapine fumarate] as the molecule, how does the “solubility for dosing via oral gavage in rats” value [13] read?
Answer: not soluble enough

Question: Which “increase in leptin release” value [14] does the source give for `OCCOCCN1CCN(C2=Nc3ccccc3Sc3ccccc32)CC1` [quetiapine, 2-(2-(4-(dibenzo[b,f][1,4]thiazepin-11-yl)piperazin-1-yl)ethoxy)ethanol] here?
Answer: about 37%

Question: And the “affinity” value [15]?
Answer: major affinity

Question: What about the “affinity” value [16] of the same molecule?
Answer: moderate affinity

Question: And the “prolongation of the QT interval” value [17]?
Answer: small insignificant prolongations

Question: What about the “affinity” value [18] of the same molecule?
Answer: moderate affinity

Question: What about the “terminal half-life time for elimination” value ([19]; in vivo) of the same molecule?
Answer: about 7 hours

Question: And the Absolute bioavailability ([19]; oral)?
Answer: 9%

Question: What about the “affinity” value [20] of the same molecule?
Answer: major affinity

Question: Which time to response ([21]; acute mania) does the source give for `CCCC(CCC)C(=O)O` [valproic acid, 2-propylpentanoic acid] here?
Answer: 1-2 weeks

Question: What about the “response rate in acute mania” value ([21]; placebo effect 20-30%) of the same molecule?
Answer: around 50%

Question: And the “response rate in bipolar depression” value [22]?
Answer: ~30%
